Test results from paper PMC9221748, “Construction and Characterization of T7 Bacteriophages Harboring Apidaecin-Derived Sequences” (Current Issues in Molecular Biology, 2022).
No end group written: not given here.

System: E. coli Rosetta DE3 pLysS
Assay: MIC, liquid broth microdilution assay
Assay type: cell-based, Escherichia coli
Details: 25% MHBII, 7.5 × 10^6 CFU/mL, 20 ± 2 h at 37 °C, turbidity at 600 nm, at least twice in triplicates
Description: Minimal inhibitory concentrations (MICs) were determined at least twice in triplicates, using a liquid broth microdilution assay in sterile 96-well plates and a total volume of 100 μL per well. Aqueous peptide solutions were serially two-fold diluted in 50 µL of 25% MHBII or LB medium (Luria/Miller). Overnight cultures were diluted in 25% MHBII or LB medium (Luria/Miller) to 1.5 × 10^7 cells per mL and an aliquot of 50 μL was added to each well. The final cell count in each well was 7.5 × 10^6 CFU/mL. The plates were incubated for 20 ± 2 h at 37 °C. The turbidity of each well was measured at 600 nm.

Sequence | MIC
GNNRPIYIPRPRPPHPRPIRV [Api805] | 4 µg/mL
GNNRPVYIPRPRPPHPRL [Api801] | 2 µg/mL
